Test results taken from patent US10815222B2, “Compounds for use in the treatment of kinetoplastid infection” (C.N.C.C.S. S.c.a.r.l. COLLEZIONE NAZIONALE DEI COMPOSTI …, priority 2016, dated 2020).
Like-named read-outs stand apart in the source and are kept apart here.

Key:
Assay type in all cases: cell-based
HeLa cells = experiment: HeLa cytotoxicity assay (CellTiter Glo, 72 h); settings: Homo sapiens, read-out: Cell Proliferation Hela IC50
Procedure: (§1) HeLa cells (ATCC® CCL2™) in DMEM (Dulbecco Modified Eagle's Medium) without phenol red, Thermo, 11880, USA+10% FBS+1× PenStrep+1× Gln or HUVEC cells (ATCC® CRL1730™) in EBM-2 (Endothelial Growth Basal Medium, Lonza, CC3156)+EGM-2 SingleQuotsTMSupplements and Growth Factors (Lonza, CC4176)+1× Penicyllin-Streptomycin (PenStrep, ThermoFisher)+1× Glutamine, are plated in a 384 well plate (Thermo, 4334-11, USA) to a density of 2000 cells per well and let recover for four hours at 37° C., 5% CO2 in a humidified atmosphere. After the recovery, compounds are transferred to assay plates as per compound preparation method. Assay plates are then incubated at 37° C., 5% CO2 in a humidified atmosphere for 72 hours. Cell viability is measured by the CellTiter Glo (Promega, G8080, USA) as per manufacturer instruction.

HUVEC cells = experiment: HUVEC cytotoxicity assay (CellTiter Glo, 72 h); settings: Homo sapiens, read-out: Cell Proliferation HUVEC IC50
Procedure: as §1

[1] = tested on: Bloodstream form of Trypanosoma brucei, strain Lister 427; experiment: Trypanosoma brucei growth inhibition assay (CellTiter-Glo, 24 h); settings: Trypanosoma brucei
Summary of the method: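 Bloodstream-form T. brucei Lister 427, 1500 parasites per well in supplemented IMDM with 10% FBS, were exposed to compound (DMSO ≤0.25% final) for 24 h at 37 °C. Viability was measured by CellTiter-Glo luminescence.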

[2] = T. Brucei Growth Inibition Assay, class symbols, read-out: T. Brucei GI EC50
[3] = Table 3, read-out: T. brucei GI EC50

Structure (SMILES)	IC50 (HeLa cells) [nM]	IC50 (HUVEC cells) [nM]	EC50 [1, 2] [nM]	EC50 [1, 3] [nM]	EC50 ([1]; read-out: T. Brucei GI EC50) [nM]
CCC(=O)CCCN1CCN(C(=O)Cc2c[nH]c3ccccc23)C(c2ncc(-c3ccc4ccccc4c3)[nH]2)C1 (stereo not drawn)	≥ 25000	9970	100 to 500	489	–
CCC(=O)CCCN1CCN(C(=O)Cc2c[nH]c3ncccc23)C(c2ncc(-c3ccc4ccccc4c3)[nH]2)C1 (stereo not drawn)	≥ 25000	≥ 25000	510 to 1000	545	–
COc1nc2ccccc2cc1-c1cnc(C2CN(CC3CCOC3)CCN2C(=O)Cn2c(C)nc3ccccc32)[nH]1 (stereo not drawn) [1-(2-(5-(2-methoxyquinolin-3-yl)-1H-imidazol-2-yl)-4-((tetrahydrofuran-3-yl)methyl)piperazin-1-yl)-2-(2-methyl-1H-benzo[d]imidazol-1-yl)ethan-1-one]	20600	≥ 25000	100 to 500	163	–
CCC(O)CCCN1CCN(C(=O)Cc2c(C)[nH]c3ccc(OC)cc23)C(c2ncc(-c3ccc4ccccc4c3)[nH]2)C1 (stereo not drawn) [1-(4-(4-hydroxyhexyl)-2-(5-(naphthalen-2-yl)-1H-imidazol-2-yl)piperazin-1-yl)-2-(5-methoxy-2-methyl-1H-indol-3-yl)ethan-1-one]	13100	9270	< 100	13	–
COc1ccc2[nH]c(C)c(CC(=O)N3CCN(CC4CC4)CC3c3ncc(-c4ccc5ccccc5c4)[nH]3)c2c1 (stereo not drawn) [1-(4-(cyclopropylmethyl)-2-(5-(naphthalen-2-yl)-1H-imidazol-2-yl)piperazin-1-yl)-2-(5-methoxy-2-methyl-1H-indol-3-yl)ethan-1-one]	≥ 25000	8060	< 100	17.6	–
CCCCCCN1CCN(C(=O)Cc2c(C)[nH]c3ccc(OC)cc23)C(c2ncc(-c3ccc4ccccc4c3)[nH]2)C1 (stereo not drawn) [1-(4-hexyl-2-(5-(naphthalen-2-yl)-1H-imidazol-2-yl)piperazin-1-yl)-2-(5-methoxy-2-methyl-1H-indol-3-yl)ethan-1-one]	≥ 25000	≥ 25000	< 100	78.7	–
COc1nc2ccccc2cc1-c1cnc(C2CN(Cc3cnn(C)c3)CCN2C(=O)Cc2c(C)[nH]c3ccc(F)cc23)[nH]1 (stereo not drawn) [2-(5-fluoro-2-methyl-1H-indol-3-yl)-1-(2-(5-(2-methoxyquinolin-3-yl)-1H-imidazol-2-yl)-4-((1-methyl-1H-pyrazol-4-yl)methyl)piperazin-1-yl)ethan-1-one]	17400	6720	100 to 500	172	–
COc1nc2ccccc2cc1-c1cnc(C2CN(CC3CCOC3)CCN2C(=O)Cc2c(C)[nH]c3ccc(F)cc23)[nH]1 (stereo not drawn) [2-(5-fluoro-2-methyl-1H-indol-3-yl)-1-(2-(5-(2-methoxyquinolin-3-yl)-1H-imidazol-2-yl)-4-((tetrahydrofuran-3-yl)methyl)piperazin-1-yl)ethan-1-one]	18700	9630	< 100	35.1	–
COc1ccc2nc(C(F)(F)F)n(CC(=O)N3CCN(Cc4ccn(C)n4)C[C@H]3c3ncc(-c4cc5ccccc5nc4OC)[nH]3)c2c1 [(S)-2-(6-methoxy-2-(trifluoromethyl)-1H-benzo[d]imidazol-1-yl)-1-(2-(5-(2-methoxyquinolin-3-yl)-1H-imidazol-2-yl)-4-((1-methyl-1H-pyrazol-3-yl)methyl)piperazin-1-yl)ethan-1-one]	–	–	< 100	–	–
COc1ccc2nc(C(F)(F)F)n(CC(=O)N3CCN(Cc4cocn4)C[C@H]3c3ncc(-c4cc5ccccc5nc4OC)[nH]3)c2c1 [(S)-2-(6-methoxy-2-(trifluoromethyl)-1H-benzo[d]imidazol-1-yl)-1-(2-(5-(2-methoxyquinolin-3-yl)-1H-imidazol-2-yl)-4-(oxazol-4-ylmethyl)piperazin-1-yl)ethan-1-one]	–	–	< 100	–	–
COc1ccc2nc(C(F)(F)F)n(CC(=O)N3CCN(Cc4cnccn4)C[C@H]3c3ncc(-c4cc5ccccc5nc4OC)[nH]3)c2c1 [(S)-2-(6-methoxy-2-(trifluoromethyl)-1H-benzo[d]imidazol-1-yl)-1-(2-(5-(2-methoxyquinolin-3-yl)-1H-imidazol-2-yl)-4-(pyrazin-2-ylmethyl)piperazin-1-yl)ethan-1-one]	–	–	< 100	–	–
COc1ccc2nc(C(F)(F)F)n(CC(=O)N3CCN(Cc4ccnnc4)C[C@H]3c3ncc(-c4cc5ccccc5nc4OC)[nH]3)c2c1 [(S)-2-(6-methoxy-2-(trifluoromethyl)-1H-benzo[d]imidazol-1-yl)-1-(2-(5-(2-methoxyquinolin-3-yl)-1H-imidazol-2-yl)-4-(pyridazin-4-ylmethyl)piperazin-1-yl)ethan-1-one]	–	–	< 100	–	–
COc1ccc2nc(C(F)(F)F)n(CC(=O)N3CCN(Cc4nccs4)C[C@H]3c3ncc(-c4cc5ccccc5nc4OC)[nH]3)c2c1 [(S)-2-(6-methoxy-2-(trifluoromethyl)-1H-benzo[d]imidazol-1-yl)-1-(2-(5-(2-methoxyquinolin-3-yl)-1H-imidazol-2-yl)-4-(thiazol-2-ylmethyl)piperazin-1-yl)ethan-1-one]	–	–	< 100	–	–
COc1ccc2nc(C(F)(F)F)n(CC(=O)N3CCN(Cc4cscn4)C[C@H]3c3ncc(-c4cc5ccccc5nc4OC)[nH]3)c2c1 [(S)-2-(6-methoxy-2-(trifluoromethyl)-1H-benzo[d]imidazol-1-yl)-1-(2-(5-(2-methoxyquinolin-3-yl)-1H-imidazol-2-yl)-4-(thiazol-4-ylmethyl)piperazin-1-yl)ethan-1-one]	–	–	< 100	–	–
COc1ccc2nc(C(F)(F)F)n(CC(=O)N3CCN(Cc4nccs4)C[C@H]3c3nnc(-c4cc5ccccc5nc4OC)[nH]3)c2c1 [(S)-2-(6-methoxy-2-(trifluoromethyl)-1H-benzo[d]imidazol-1-yl)-1-(2-(5-(2-methoxyquinolin-3-yl)-4H-1,2,4-triazol-3-yl)-4-(thiazol-2-ylmethyl)piperazin-1-yl)ethan-1-one]	–	–	< 100	–	–
COc1ccc2nc(C(F)(F)F)n(CC(=O)N3CCN(Cc4ccn(C)n4)CC[C@H]3c3ncc(-c4cc5ccccc5nc4OC)[nH]3)c2c1 [(S)-2-(6-methoxy-2-(trifluoromethyl)-1H-benzo[d]imidazol-1-yl)-1-(7-(5-(2-methoxyquinolin-3-yl)-1H-imidazol-2-yl)-4-((1-methyl-1H-pyrazol-3-yl)methyl)-1,4-diazepan-1-yl)ethan-1-one]	–	–	< 100	–	–
COc1ccc2nc(C)n(CC(=O)N3CCN(Cc4ccn(C)n4)C[C@H]3c3ncc(-c4cc5ccccc5nc4OC)[nH]3)c2c1 [(S)-2-(6-methoxy-2-methyl-1H-benzo[d]imidazol-1-yl)-1-(2-(5-(2-methoxyquinolin-3-yl)-1H-imidazol-2-yl)-4-((1-methyl-1H-pyrazol-3-yl)methyl)piperazin-1-yl)ethan-1-one]	–	–	< 100	–	–
COc1ccc2nc(C)n(CC(=O)N3CCN(Cc4nncn4C)C[C@H]3c3ncc(-c4cc5ccccc5nc4OC)[nH]3)c2c1 [(S)-2-(6-methoxy-2-methyl-1H-benzo[d]imidazol-1-yl)-1-(2-(5-(2-methoxyquinolin-3-yl)-1H-imidazol-2-yl)-4-((4-methyl-4H-1,2,4-triazol-3-yl)methyl)piperazin-1-yl)ethan-1-one]	–	–	510 to 1000	–	–
COc1ccc2nc(C)n(CC(=O)N3CCN(Cc4cocn4)C[C@H]3c3ncc(-c4cc5ccccc5nc4OC)[nH]3)c2c1 [(S)-2-(6-methoxy-2-methyl-1H-benzo[d]imidazol-1-yl)-1-(2-(5-(2-methoxyquinolin-3-yl)-1H-imidazol-2-yl)-4-(oxazol-4-ylmethyl)piperazin-1-yl)ethan-1-one]	–	–	< 100	–	–
COc1ccc2nc(C)n(CC(=O)N3CCN(CC4COC4)C[C@H]3c3ncc(-c4cc5ccccc5nc4OC)[nH]3)c2c1 [(S)-2-(6-methoxy-2-methyl-1H-benzo[d]imidazol-1-yl)-1-(2-(5-(2-methoxyquinolin-3-yl)-1H-imidazol-2-yl)-4-(oxetan-3-ylmethyl)piperazin-1-yl)ethan-1-one]	–	–	< 100	–	–
COc1ccc2nc(C)n(CC(=O)N3CCN(Cc4cnccn4)C[C@H]3c3ncc(-c4cc5ccccc5nc4OC)[nH]3)c2c1 [(S)-2-(6-methoxy-2-methyl-1H-benzo[d]imidazol-1-yl)-1-(2-(5-(2-methoxyquinolin-3-yl)-1H-imidazol-2-yl)-4-(pyrazin-2-ylmethyl)piperazin-1-yl)ethan-1-one]	–	–	< 100	–	–
COc1ccc2nc(C)n(CC(=O)N3CCN(Cc4nccs4)C[C@H]3c3ncc(-c4cc5ccccc5nc4OC)[nH]3)c2c1 [(S)-2-(6-methoxy-2-methyl-1H-benzo[d]imidazol-1-yl)-1-(2-(5-(2-methoxyquinolin-3-yl)-1H-imidazol-2-yl)-4-(thiazol-2-ylmethyl)piperazin-1-yl)ethan-1-one]	–	–	< 100	–	–
COc1nc2ccccc2cc1-c1cnc(C2COCCN2C(=O)OCc2ccccc2)[nH]1 (stereo not drawn) [benzyl 3-(5-(2-methoxyquinolin-3-yl)-1H-imidazol-2-yl)morpholine-4-carboxylate]	–	–	1010 to 5000	–	–
CCC(=O)CCCN1CCN(C(=O)Oc2ccccc2)C(c2ncc(-c3ccc4ccccc4c3)[nH]2)C1 (stereo not drawn) [phenyl 2-(5-(naphthalen-2-yl)-1H-imidazol-2-yl)-4-(4-oxohexyl)piperazine-1-carboxylate]	–	–	–	–	1010 to 5000
